Results as given in patent US9682941B2, “Substituted biphenyl analogues as dual inhibitors of aromatase and sulfatase” (ESTRYX PHARMA LIMITED, priority 2013, dated 2017).

Tests used:
[1] = molecular target: CYP3A4 (Homo sapiens, UniProt P08684); assay: Cytochrome P450 inhibition, human recombinant CYP3A4; type: in vitro ADME; settings: recombinant human CYP, 5 minutes, 37° C.
Method: (§1) Inhibitory activity of the compounds towards CYP1A2, 2C9, 2C19, 2D6, and 3A4 was evaluated using human recombinant CYPs. Test compounds and reference inhibitors were initially prepared from their stock solutions in a mixture solvent of DMSO/ACN (10/90) at a concentration of 200-fold of the final. A 3-fold serial dilution (1/3, 1/9, 1/27 etc.) was made in the DMSO/ACN mixture solvent to generate 7 consecutive concentrations. The serially diluted solutions of test compounds and reference inhibitors (positive controls) were further diluted directly in recombinant human CYP enzymes in assay buffer (0.1 M potassium phosphate buffer, pH7.4) to reach the concentration of 2-fold of the final (2×). Aliquots of 30 μL of 2× compound/enzyme solutions were loaded to a 96-well assay plates and preincubated at 37° C. for 10 minutes. An aliquot of 15 μL of prewarmed 4× substrate solutions made in the assay buffer was added into each of the wells containing the 2× compound/enzyme mixtures. Finally, the reaction was initiated by adding an aliquot of 15 μL of 4×NADPH made in the assay buffer and the assay plates were further incubated at 37° C. for a time period designated for each isoform (5 minutes for 3A4, 20 minutes for 2C9, 10 minutes for 2D6 and 2C19, and 15 minutes for 1A2). The reactions were stopped by adding 120 μL ACN containing the stable isotopes of the metabolites for corresponding CYP isoforms, followed by vortexing for 5 minutes and centrifugation at 4000 rpm for 15 minutes. The resulting supernatants were transferred into new 96-well plates for LC-MS/MS analysis. Experiments are performed in duplicate. The inhibitory concentration of 50% of the enzymatic activity is calculated.

[2] = molecular target: T1, CYP1A2 (Homo sapiens, UniProt P05177); assay: Cytochrome P450 inhibition, human recombinant CYP1A2; type: in vitro ADME; settings: recombinant human CYP, 15 minutes, 37° C.
T1 sequence (P05177 1-516): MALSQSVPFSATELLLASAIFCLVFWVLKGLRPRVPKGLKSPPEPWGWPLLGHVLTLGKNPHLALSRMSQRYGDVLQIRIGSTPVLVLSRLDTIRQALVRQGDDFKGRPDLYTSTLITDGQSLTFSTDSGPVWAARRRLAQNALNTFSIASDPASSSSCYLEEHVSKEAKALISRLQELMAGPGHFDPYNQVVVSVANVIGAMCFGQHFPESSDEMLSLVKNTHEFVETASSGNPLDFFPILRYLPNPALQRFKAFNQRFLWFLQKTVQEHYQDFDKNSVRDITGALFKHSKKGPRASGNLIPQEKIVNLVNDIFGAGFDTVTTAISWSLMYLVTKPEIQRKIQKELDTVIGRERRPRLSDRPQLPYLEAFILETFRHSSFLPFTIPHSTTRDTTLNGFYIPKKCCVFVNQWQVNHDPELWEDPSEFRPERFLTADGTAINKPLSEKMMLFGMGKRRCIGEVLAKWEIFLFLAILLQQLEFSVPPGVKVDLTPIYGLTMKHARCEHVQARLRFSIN
Method: as §1

[3] = molecular target: CYP2C9 (Homo sapiens, UniProt P11712); assay: Cytochrome P450 inhibition, human recombinant CYP2C9; type: in vitro ADME; settings: recombinant human CYP, 20 minutes, 37° C.
CYP2C9, sequence (P11712 whole entry): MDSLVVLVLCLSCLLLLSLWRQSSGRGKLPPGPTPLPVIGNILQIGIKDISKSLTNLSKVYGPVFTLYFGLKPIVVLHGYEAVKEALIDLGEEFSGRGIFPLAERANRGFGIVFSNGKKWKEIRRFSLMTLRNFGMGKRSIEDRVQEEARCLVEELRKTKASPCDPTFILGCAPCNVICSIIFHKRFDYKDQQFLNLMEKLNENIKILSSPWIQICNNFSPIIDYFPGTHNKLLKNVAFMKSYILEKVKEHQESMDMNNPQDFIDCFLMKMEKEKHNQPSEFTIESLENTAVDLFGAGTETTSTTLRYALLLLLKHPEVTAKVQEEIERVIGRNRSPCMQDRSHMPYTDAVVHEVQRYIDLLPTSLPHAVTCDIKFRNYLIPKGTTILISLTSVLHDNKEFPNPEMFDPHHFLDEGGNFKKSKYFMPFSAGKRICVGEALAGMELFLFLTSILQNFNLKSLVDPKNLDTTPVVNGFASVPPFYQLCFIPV
Method: as §1

[4] = molecular target: T2, steroid sulfatase (Homo sapiens, UniProt P08842); assay: Steroid sulfatase (STS) inhibition assay in JEG-3 cells ([6,7-3H] estrone sulfate); type: cell-based; settings: 1 hour at 37° C., duplicate
T2 construct: JEG-3 which constitutively expresses high amount of aromatase and steroid sulfatase; endogenous in cells; host or cells: JEG-3
T2 sequence (P08842 22-583): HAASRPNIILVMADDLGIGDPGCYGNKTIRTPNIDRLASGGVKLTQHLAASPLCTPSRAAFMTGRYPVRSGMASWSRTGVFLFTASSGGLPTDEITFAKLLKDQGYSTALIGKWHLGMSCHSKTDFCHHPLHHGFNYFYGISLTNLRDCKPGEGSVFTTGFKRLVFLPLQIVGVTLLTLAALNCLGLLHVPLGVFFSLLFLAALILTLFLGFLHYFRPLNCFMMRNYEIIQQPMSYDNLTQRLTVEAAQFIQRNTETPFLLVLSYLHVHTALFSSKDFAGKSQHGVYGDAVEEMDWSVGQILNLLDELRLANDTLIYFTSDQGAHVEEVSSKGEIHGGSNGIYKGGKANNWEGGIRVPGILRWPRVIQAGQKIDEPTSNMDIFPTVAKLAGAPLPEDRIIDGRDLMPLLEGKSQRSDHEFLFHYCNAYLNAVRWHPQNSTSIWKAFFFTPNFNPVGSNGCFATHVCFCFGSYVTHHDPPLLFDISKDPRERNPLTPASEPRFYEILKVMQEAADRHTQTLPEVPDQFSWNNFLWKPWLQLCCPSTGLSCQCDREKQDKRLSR
Method: (§2) Aromatase and steroid sulfatase enzymes inhibitions were evaluated in the human chorionic carcinoma cell line JEG-3 which constitutively expresses high amount of aromatase and steroid sulfatase.
For STS assay, JEG-3 cells were seeded into 24-well culture plates at 150,000 cells/ml/well and maintained in MEM containing supplements overnight. When reaching 80% confluent, the cells were washed once with serum-free MEM, loaded with 1 ml of substrate mix containing [6,7-3H] Estrone sulfate (E1S, 0.6 μCi/ml) and [4-14C] Estrone (E1, 4 nCi/ml) in the presence of compounds in a concentration series, and incubated for 1 hour at 37° C. The product [3H]E1 was separated from E1S by toluene partition using [4-14C]E1 to monitor extraction procedural losses, and the toluene fraction radioactivity was measured by a MicroBeta scintillation counter.
(§3) Experiments are performed in duplicate. The inhibitory concentration of 50% of the enzymatic activity is calculated.

[5] = molecular target: CYP2D6 (Homo sapiens, UniProt P10635); assay: Cytochrome P450 inhibition, human recombinant CYP2D6; type: in vitro ADME; settings: recombinant human CYP, 10 minutes, 37° C.
CYP2D6, sequence (P10635 whole entry): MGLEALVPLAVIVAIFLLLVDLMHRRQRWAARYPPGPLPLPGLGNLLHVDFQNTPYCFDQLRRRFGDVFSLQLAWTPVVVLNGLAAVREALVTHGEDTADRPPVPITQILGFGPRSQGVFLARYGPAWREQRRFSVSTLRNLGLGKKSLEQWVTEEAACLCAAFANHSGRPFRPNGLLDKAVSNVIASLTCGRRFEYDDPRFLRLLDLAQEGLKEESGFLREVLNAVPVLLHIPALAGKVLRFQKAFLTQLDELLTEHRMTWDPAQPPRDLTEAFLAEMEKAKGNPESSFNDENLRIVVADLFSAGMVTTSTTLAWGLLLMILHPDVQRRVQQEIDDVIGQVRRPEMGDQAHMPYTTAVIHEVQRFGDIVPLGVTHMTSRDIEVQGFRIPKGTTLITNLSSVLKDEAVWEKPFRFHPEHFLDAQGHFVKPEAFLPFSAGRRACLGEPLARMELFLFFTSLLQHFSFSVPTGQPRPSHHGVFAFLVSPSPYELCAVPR
Method: as §1

[6] = molecular target: T3, aromatase (Homo sapiens, UniProt P11511); assay: Aromatase inhibition assay in JEG-3 cells ([1β-3H] androstenedione, tritiated water release); type: cell-based; settings: 1.25 hour incubation, duplicate
T3 construct: JEG-3 which constitutively expresses high amount of aromatase and steroid sulfatase; endogenous in cells; host or cells: JEG-3
T3 sequence (P11511 1-503): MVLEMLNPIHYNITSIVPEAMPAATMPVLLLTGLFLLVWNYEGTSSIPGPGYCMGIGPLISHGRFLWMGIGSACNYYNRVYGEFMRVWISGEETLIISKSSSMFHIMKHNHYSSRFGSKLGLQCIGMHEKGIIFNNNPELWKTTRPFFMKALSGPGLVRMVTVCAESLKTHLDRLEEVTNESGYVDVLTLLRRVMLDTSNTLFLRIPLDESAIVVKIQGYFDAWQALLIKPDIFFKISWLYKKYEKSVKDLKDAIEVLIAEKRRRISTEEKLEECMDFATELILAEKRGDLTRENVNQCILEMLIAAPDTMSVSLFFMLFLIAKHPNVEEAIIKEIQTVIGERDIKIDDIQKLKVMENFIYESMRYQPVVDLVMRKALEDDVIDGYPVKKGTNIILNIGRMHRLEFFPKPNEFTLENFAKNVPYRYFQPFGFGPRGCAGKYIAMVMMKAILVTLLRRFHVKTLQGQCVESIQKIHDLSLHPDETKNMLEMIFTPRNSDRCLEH
Method: as §2
For aromatase inhibition assay, JEG-3 cells were seeded into 96-well plates at 35,000 cells/well and maintained in MEM containing supplements. When reaching 80% confluent, the cells were washed once with serum-free MEM, incubated with [1β-^3H] androstenedione (A4, 0.2 μCi/ml) for 1.25 hour in the presence of the test substances added in a concentration series. The product, tritiated water (^3H2O), was separated using 2.5% (w/v) dextran-coated charcoal at 4-8° C. for 2 hours. The supernatant radioactivity was measured by a MicroBeta scintillation counter.
as §3

[7] = molecular target: CYP2C19 (Homo sapiens, UniProt P33261); assay: Cytochrome P450 inhibition, human recombinant CYP2C19; type: in vitro ADME; settings: recombinant human CYP, 10 minutes, 37° C.
CYP2C19, sequence (P33261 whole entry): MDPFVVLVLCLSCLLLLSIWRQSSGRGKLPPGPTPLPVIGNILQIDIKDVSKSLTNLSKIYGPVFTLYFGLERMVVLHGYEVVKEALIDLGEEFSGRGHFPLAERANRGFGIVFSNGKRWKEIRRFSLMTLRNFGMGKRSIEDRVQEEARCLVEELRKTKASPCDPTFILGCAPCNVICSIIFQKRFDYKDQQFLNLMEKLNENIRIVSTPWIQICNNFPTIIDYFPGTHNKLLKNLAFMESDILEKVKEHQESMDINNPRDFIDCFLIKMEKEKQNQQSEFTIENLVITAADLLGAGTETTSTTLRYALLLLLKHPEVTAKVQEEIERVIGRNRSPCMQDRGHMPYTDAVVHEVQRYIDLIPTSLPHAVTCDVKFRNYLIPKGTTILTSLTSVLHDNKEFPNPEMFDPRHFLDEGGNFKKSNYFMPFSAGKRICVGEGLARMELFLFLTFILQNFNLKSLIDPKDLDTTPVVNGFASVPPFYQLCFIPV
Method: as §1

CYP3A4, sequence (P08684 whole entry): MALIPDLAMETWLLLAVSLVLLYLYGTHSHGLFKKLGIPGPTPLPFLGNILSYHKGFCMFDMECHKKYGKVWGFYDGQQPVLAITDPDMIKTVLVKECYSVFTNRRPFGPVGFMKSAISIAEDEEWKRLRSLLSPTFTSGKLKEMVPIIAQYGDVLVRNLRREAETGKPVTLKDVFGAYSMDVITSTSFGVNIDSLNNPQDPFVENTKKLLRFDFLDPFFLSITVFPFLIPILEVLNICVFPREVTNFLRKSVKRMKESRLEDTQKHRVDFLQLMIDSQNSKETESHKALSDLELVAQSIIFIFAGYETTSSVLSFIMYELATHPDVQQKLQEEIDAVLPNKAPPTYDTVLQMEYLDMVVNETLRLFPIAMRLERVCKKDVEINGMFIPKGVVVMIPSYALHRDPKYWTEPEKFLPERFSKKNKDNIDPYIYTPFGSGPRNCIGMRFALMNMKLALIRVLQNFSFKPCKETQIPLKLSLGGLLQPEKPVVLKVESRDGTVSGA

| Compound | IC50 [1] | IC50 [2] | IC50 [3] | IC50 [4] | IC50 [5] | IC50 [6] | IC50 [7] |
| --- | --- | --- | --- | --- | --- | --- | --- |
| N#Cc1cnc(Cn2cnc3ccccc32)nc1-c1ccc(OS(N)(=O)=O)cc1 [Example 9, 4-(2-((1H-Benzo[d]imidazol-1-yl)methyl)-5-cyanopyrimidin-4-yl)phenyl sulfamate] | 3.68 µM | > 5 µM | > 5 µM | 0.0018 µM | > 5 µM | 0.0035 µM | > 5 µM |
| N#Cc1cnc(Cn2cnc3ccccc32)cc1-c1ccc(OS(N)(=O)=O)cc1 [Example 17, 4-(2-((1H-Benzo[d]imidazol-1-yl)methyl)-5-cyanopyridin-4-yl)phenyl sulfamate] | > 5 µM | > 5 µM | > 5 µM | 0.0039 µM | > 5 µM | 0.0022 µM | > 5 µM |
| N#Cc1ccc(Nn2cnc3ccccc32)nc1-c1ccc(OS(N)(=O)=O)cc1 [Example 22, 4-(6-(1H-Benzo[d]imidazol-1-ylamino)-3-cyanopyridin-2-yl)phenyl sulfamate] | > 5 µM | > 5 µM | > 5 µM | 0.006 µM | > 5 µM | 0.0037 µM | > 5 µM |
| N#Cc1ccc(Cn2cnc3cc(F)c(F)cc32)cc1-c1ccc(OS(N)(=O)=O)cc1 [Example 24, 2′-Cyano-5′-((5,6-difluoro-1H-benzo[d]imidazol-1-yl)methyl)biphenyl-4-yl sulfamate] | 3.26 µM | > 5 µM | > 5 µM | 0.002 µM | > 5 µM | 0.0009 µM | > 5 µM |
| N#Cc1cnc(Nn2cnc3ccccc32)cc1-c1ccc(OS(N)(=O)=O)cc1 [Example 26, 4-(2-(1H-Benzo[d]imidazol-1-ylamino)-5-cyanopyridin-4-yl)phenyl sulfamate] | 2.54 µM | > 5 µM | > 5 µM | 0.0118 µM | > 5 µM | 0.0027 µM | > 5 µM |
| N#Cc1ncc(Cn2cnc3ccccc32)cc1-c1ccc(OS(N)(=O)=O)cc1 [Example 31, 4-(5-((1H-Benzo[d]imidazol-1-yl)methyl)-2-cyanopyridin-3-yl)phenyl sulfamate] | > 5 µM | > 5 µM | > 5 µM | 0.0105 µM | > 5 µM | 0.0046 µM | > 5 µM |
| N#Cc1cnc(Cn2cnc3cccnc32)cc1-c1ccc(OS(N)(=O)=O)cc1 [Example 36, 4-(2-((3H-Imidazo[4,5-b]pyridin-3-yl)methyl)-5-cyanopyridin-4-yl)phenyl sulfamate] | > 5 µM | > 5 µM | > 5 µM | 0.0105 µM | > 5 µM | 0.002 µM | > 5 µM |
